Measurements taken from patent publication US20100087496A1, “NOVEL CINNAMIC AMIDE DERIVATIVES USEFUL AS ION CHANNEL MODULATORS” (NeuroSearch A/S, priority 2006, published 2010).
Values belong to the compound of their own block, whether it stands above or below them.

Target: T1, BK channels heterologously expressed in Xenopus laevis oocytes (Homo sapiens, UniProt Q12791)
T1 construct: expressed in transfected cells; host or cells: Xenopus laevis oocytes
Experiment: BK channel opening activity, two-electrode voltage clamp in Xenopus laevis oocytes
Assay type: cell-based
Settings: step from −40 mV to +30 mV
Experimental: In this example the BK channel opening activity of three cinnamic amide derivatives representative of the invention, i.e. Compound 22 (A), Compound 9 (B) and Compound 19 (C), is determined using BK channels heterologously expressed in Xenopus laevis oocytes.
The electrical current through the BK channel is measured conventional two-electrode voltage clamp. BK current is activated by repeated step protocols. In brief, this protocol goes from a resting membrane potential of −40 mV lasting for 5 seconds to a depolarised step to +30 mV lasting for 1 second. The protocol was repeated continuously.
Having reached a stable current level, Compound A (3 μM), Compound B (1 μM) and Compound C (30 μM) was added.

T1 sequence (Q12791 whole entry): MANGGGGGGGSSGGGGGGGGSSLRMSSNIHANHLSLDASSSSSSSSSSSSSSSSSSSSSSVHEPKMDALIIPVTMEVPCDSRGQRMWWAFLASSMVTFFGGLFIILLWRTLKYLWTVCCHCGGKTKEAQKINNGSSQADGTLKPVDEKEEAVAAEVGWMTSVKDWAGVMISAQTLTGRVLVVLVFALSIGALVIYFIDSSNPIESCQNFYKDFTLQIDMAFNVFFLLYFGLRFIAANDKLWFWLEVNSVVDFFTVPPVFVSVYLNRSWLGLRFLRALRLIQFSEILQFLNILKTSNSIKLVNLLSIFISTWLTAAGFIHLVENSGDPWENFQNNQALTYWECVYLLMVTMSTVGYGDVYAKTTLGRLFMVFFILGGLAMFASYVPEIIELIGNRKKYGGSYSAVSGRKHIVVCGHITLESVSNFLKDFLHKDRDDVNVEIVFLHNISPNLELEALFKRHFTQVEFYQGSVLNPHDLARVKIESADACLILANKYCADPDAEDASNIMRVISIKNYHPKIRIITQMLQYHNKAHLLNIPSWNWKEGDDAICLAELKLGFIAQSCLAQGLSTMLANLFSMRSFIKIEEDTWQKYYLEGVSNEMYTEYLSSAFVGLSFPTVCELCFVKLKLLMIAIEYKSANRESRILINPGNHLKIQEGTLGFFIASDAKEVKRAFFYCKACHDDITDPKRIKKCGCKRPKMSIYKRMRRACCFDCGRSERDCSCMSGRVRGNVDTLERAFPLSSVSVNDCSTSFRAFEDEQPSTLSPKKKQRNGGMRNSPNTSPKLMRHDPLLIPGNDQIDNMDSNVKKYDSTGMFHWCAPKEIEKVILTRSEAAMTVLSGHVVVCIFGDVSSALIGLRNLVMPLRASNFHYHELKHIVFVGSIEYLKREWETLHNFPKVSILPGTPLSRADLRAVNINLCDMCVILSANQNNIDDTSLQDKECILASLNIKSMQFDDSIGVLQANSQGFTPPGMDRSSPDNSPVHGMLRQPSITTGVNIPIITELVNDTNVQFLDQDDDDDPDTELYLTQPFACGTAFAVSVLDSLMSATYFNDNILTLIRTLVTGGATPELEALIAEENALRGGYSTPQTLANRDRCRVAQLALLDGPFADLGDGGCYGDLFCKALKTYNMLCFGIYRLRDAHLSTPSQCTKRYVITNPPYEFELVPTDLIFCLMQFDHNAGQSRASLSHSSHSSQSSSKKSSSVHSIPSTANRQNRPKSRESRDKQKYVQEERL

SMILES: O=C(/C=C/c1ccc2ccccc2c1)Nc1cc(Cl)ccc1-c1nnn[nH]1 [Compound 9, (E)-N-[5-Chloro-2-(1H-tetrazol-5-yl)-3-phenyl]-3-naphthalen-2-yl-acrylamide]
current activated by depolarisation (BK current) (1 μM): marked increase

current activated by depolarisation (BK current) (30 μM): marked increase
SMILES: O=C(/C=C/c1ccc2ccccc2c1)Nc1cc(Cl)ccc1S(=O)(=O)O [Compound 19, 4-Chloro-2-((E)-3-naphthalen-2-yl-acryloylamino)-benzenesulfonic acid]

current activated by depolarisation (BK current) (3 μM): marked increase
SMILES: O=C(Nc1cc(Cl)ccc1-c1nnn[nH]1)C1=Cc2cc(Cl)ccc2OC1 [Compound 22, 6-Chloro-2H-chromene-3-carboxylic acid [5-chloro-2-(1H-tetrazol-5-yl)-phenyl]-amide]
